The text below walks through data of patent publication US10703746B2, “Mutant IDH1 inhibitors useful for treating cancer” (THE UNITED STATES OF AMERICA, AS REPRESENTED BY THE …, priority 2014, dated 2020).

One experiment concerns the target IDH1 R132H (Homo sapiens, UniProt O75874, R132H). In words: IDH1 R132H enzymatic assay (NADPH depletion coupled to diaphorase/resazurin). The class given is biochemical. The settings on record: enzymatic inhibition, IDH1 R132H. For orientation: Resazurin is reduced to fluorescent resorufin, in cell work by metabolically active cells.
In a further experiment the target is IDH1 R132C (Homo sapiens, UniProt O75874, R132C). Kind of experiment: IDH1 R132C enzymatic assay (NADPH depletion coupled to diaphorase/resazurin). The class given is biochemical. The settings on record: enzymatic inhibition, IDH1 R132C. Put shortly: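 NADPH depletion, read via diaphorase/resazurin coupling, after adding substrate at 0.6 mM α-KG and 0.012 mM NADPH. Beforehand, 0.00032 mg/mL enzyme sat with compound 30 min at room temperature in pH 6.5 potassium phosphate buffer with MgCl2, glycerol and BSA.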
IDH1 R132C, sequence (O75874 whole entry R132C): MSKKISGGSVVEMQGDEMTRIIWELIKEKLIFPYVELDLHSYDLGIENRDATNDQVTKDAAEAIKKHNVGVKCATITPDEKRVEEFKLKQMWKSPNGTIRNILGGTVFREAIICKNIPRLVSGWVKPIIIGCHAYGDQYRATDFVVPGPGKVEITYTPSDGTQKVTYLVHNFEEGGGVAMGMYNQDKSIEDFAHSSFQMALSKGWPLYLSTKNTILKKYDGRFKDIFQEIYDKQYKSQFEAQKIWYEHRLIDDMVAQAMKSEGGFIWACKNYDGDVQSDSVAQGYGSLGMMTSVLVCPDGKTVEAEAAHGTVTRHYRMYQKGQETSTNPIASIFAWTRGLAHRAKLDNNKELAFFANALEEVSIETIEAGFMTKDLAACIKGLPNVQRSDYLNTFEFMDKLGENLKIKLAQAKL

Molecules are shown by their SMILES.

IDH1 R132H, sequence (O75874 whole entry R132H): as the sequence (O75874 whole entry R132C) above, with C132H counted along it

As usually defined, the IC50 is the concentration that inhibits the measured activity by half. Consider `CCc1cccc(CC)c1-n1c(CC(C)C)c(C(=O)N2CCNCC2)cc(-c2nc(-c3ccc(Cl)cc3)c(C#N)s2)c1=O` [Compound 501], for which the IC50 against IDH1 R132H and against IDH1 R132C was 0.3 to 1 µM throughout.
On to `CCc1cccc(CC)c1-n1c(C2CC2)c(C(=O)N2CCNCC2)cc(-c2nc(-c3ccc(Cl)cc3)cs2)c1=O` [Compound 502], for which the IC50 on IDH1 R132H and against IDH1 R132C was less than 0.3 µM in each case.
Regarding `COc1ccccc1-n1c2c(cc(-c3nc(-c4ccc(Cl)cc4)cs3)c1=O)C(=O)CCC2` [Compound 503], the half-inhibitory concentration (IC50) against IDH1 R132H and against IDH1 R132C was 1 to 5 µM each time.
`CCc1cccc(CC)c1-n1c(CC(C)C)c(C(=O)N2CCNCC2)cc(-c2csc(-c3ccc(Cl)cc3)n2)c1=O` [Compound 505]: the IC50 against IDH1 R132H and against IDH1 R132C was less than 0.3 µM throughout.
As for `CCc1cccc(CC)c1-n1c(CC2CCCO2)c(C(=O)N2CCNCC2)cc(-c2nc(-c3ccc(Cl)cc3)cs2)c1=O` (stereo not shown) [Compound 506], the IC50 against IDH1 R132H and at IDH1 R132C was less than 0.3 µM in each case.
Turning to `CCc1ncc(F)cc1-n1c(C=C(C)C)c(C(=O)N2CCNCC2)cc(-c2nc(-c3ccc(Cl)cc3)cs2)c1=O` [Compound 507], the IC50 against IDH1 R132H and against IDH1 R132C was less than 0.3 µM each time.
Take `CCc1cccc(OC(C)C)c1-n1c(C=C(C)C)c(C(=O)N2CCNCC2)cc(-c2nc(-c3ccc(Cl)cc3)cs2)c1=O` [Compound 508]: the IC50 at IDH1 R132H and against IDH1 R132C was less than 0.3 µM in each case.
Regarding `COc1ccc(C#N)cc1-n1c2c(cc(-c3nc(-c4ccc(Cl)cc4)cs3)c1=O)C(=O)CC(C)(C)C2` [Compound 509], the IC50 against IDH1 R132H and on IDH1 R132C was 1 to 5 µM throughout.
With `CCc1cccc(CC)c1-n1c(C=C(C)C)c(C(=O)N2CCNCC2)cc(-c2ccn(-c3ccc(C(F)(F)F)cc3)n2)c1=O` [Compound 511], the IC50 against IDH1 R132H and against IDH1 R132C was less than 0.3 µM throughout.
In the case of `CCc1cccc(CC)c1-n1c(C=C(C)C)c(C(=O)N2CC3(CNC3)C2)cc(-c2nc(-c3ccc(Cl)cc3)cs2)c1=O` [Compound 512], the IC50 on IDH1 R132H and at IDH1 R132C was less than 0.3 µM in each case.
As for `CCOc1ncc(Cl)cc1-n1c(C=C(C)C)c(C(=O)N2CCNCC2)cc(-c2nc(-c3ccc(C(F)(F)F)nc3)cs2)c1=O` [Compound 513], the values for the concentration for half-maximal inhibition (IC50) on IDH1 R132H and on IDH1 R132C were less than 0.3 µM and 0.3 to 1 µM, respectively.
Turning to `O=c1c(-c2nc(-c3ccc(Cl)cc3)cs2)cc2c(O)cccc2n1-c1cccnc1` [Compound 514], the IC50 is more than 20 µM against IDH1 R132H and 1 to 5 µM at IDH1 R132C.
As to `CCc1cccc(CC)c1-n1c(C=C(C)C)c(C(=O)N2CCNCC2)cc(-c2nc(-c3ccc(C(F)(F)F)cn3)cs2)c1=O` [Compound 515], the IC50 on IDH1 R132H and against IDH1 R132C was less than 0.3 µM each time.
As to `CCc1cccc(CC)c1-n1c(CC(C)C)c(C(=O)N2CCNCC2)cc(-c2nc(-c3ccc(C(F)F)cc3)c(C)s2)c1=O` [Compound 517], the IC50 on IDH1 R132H and against IDH1 R132C was less than 0.3 µM each time.
For the compound `CCc1cccc(CC)c1-n1c(-c2cccn2C)c(C(=O)N2CCNCC2)cc(-c2nc(-c3ccc(Cl)cc3)cs2)c1=O` [Compound 518], the IC50 on IDH1 R132H and on IDH1 R132C was less than 0.3 µM in each case.
As to `CCc1cccc(CC)c1-n1c(C=C(C)C)c(C(=O)N2CCC3(CNC3)C2)cc(-c2nc(-c3ccc(Cl)cc3)cs2)c1=O` [Compound 519], the IC50 against IDH1 R132H is 0.3 to 1 µM; on IDH1 R132C, less than 0.3 µM.
As for `CCOc1ncc(F)cc1-n1c(C=C(C)C)c(C(=O)N2CCNCC2)cc(-c2nc(-c3ccc(C(F)F)nc3)cs2)c1=O` [Compound 520], the figures for the IC50 at IDH1 R132H and on IDH1 R132C were less than 0.3 µM and 1 to 5 µM, respectively.
Take `CC1(C)CC(=O)c2cc(-c3nc(-c4ccc(Cl)cc4)cs3)c(=O)n(-c3cc(Cl)ccc3Cl)c2C1` [Compound 522]: the results for the IC50 against IDH1 R132H and at IDH1 R132C were 1 to 5 µM and 0.3 to 1 µM, respectively.
As for `CCc1cccc(CC)c1-n1c(C=C(C)C)c(C(=O)N(C)C2CCNCC2)cc(-c2nc(-c3ccc(Cl)cc3)cs2)c1=O` [Compound 523], the IC50 against IDH1 R132H and against IDH1 R132C was less than 0.3 µM each time.
In the case of `CCc1ncc(F)cc1-n1c(C=C(C)C)c(C(=O)N2CCNCC2)cc(-c2nc(-c3ccc(C(F)F)cc3)cs2)c1=O` [Compound 524], the half-inhibitory concentration (IC50) against IDH1 R132H and against IDH1 R132C was less than 0.3 µM throughout.
As to `CCc1cccc(CC)c1-n1c2c(cc(-c3nc(-c4ccc(Cl)cc4)cs3)c1=O)C(=O)CCC2` [Compound 525], the IC50 at IDH1 R132H and against IDH1 R132C was 1 to 5 µM in each case.
With `CCc1cccc(CC)c1-n1c(C=C(C)C)c(C(=O)N2CCNC(=O)C2C)cc(-c2nc(-c3ccc(Cl)cc3)cs2)c1=O` (stereo not shown) [Compound 526], the IC50 against IDH1 R132H and at IDH1 R132C was less than 0.3 µM in each case.
`COc1ccc(CN2CCN(C)CC2)cc1-n1c2c(cc(-c3nc(-c4ccc(Cl)cc4)cs3)c1=O)C(=O)CCC2` [Compound 527]: the IC50 at IDH1 R132H and against IDH1 R132C was more than 20 µM in each case.
Regarding `CCOc1ccc(C)cc1-n1c(C=C(C)C)c(C(=O)N2CCNCC2)cc(-c2nc(-c3ccc(Cl)cc3)cs2)c1=O` [Compound 528], the IC50 against IDH1 R132H and against IDH1 R132C was less than 0.3 µM each time.
Consider `CCc1cccc(CC)c1-n1c(C=C(C)C)c(C(=O)N2CCCNC(=O)C2)cc(-c2nc(-c3ccc(Cl)cc3)cs2)c1=O` [Compound 529], for which the IC50 against IDH1 R132H and on IDH1 R132C was less than 0.3 µM in each case.
In the case of `CC(C)=Cc1c(C(=O)N2CCNCC2)cc(-c2nc(-c3ccc(Cl)cc3)cs2)c(=O)n1-c1cc(F)ccc1OC(C)C` [Compound 530], the IC50 at IDH1 R132H is less than 0.3 µM; at IDH1 R132C it was 0.3 to 1 µM.
For `CCc1cc(C)cc(CC)c1-n1c2c(cc(-c3nc(-c4ccc(Cl)cc4)cs3)c1=O)C(=O)CCC2` [Compound 531] the same measures were 5 to 20 µM and 1 to 5 µM.
Regarding `COc1ccc(F)cc1-n1c(C=C(C)C)c(C(=O)N2CCNCC2)cc(-c2ccn(-c3ccc(C(F)(F)F)cc3)n2)c1=O` [Compound 532], the IC50 lay in the range of 0.3 to 1 µM on IDH1 R132H and 1 to 5 µM against IDH1 R132C.
Turning to `CCc1cccc(CC)c1-n1c(C=C(C)C)c(C(=O)N2CCNC[C@H]2C)cc(-c2nc(-c3ccc(C(F)(F)F)cc3)cs2)c1=O` [Compound 533], the IC50 on IDH1 R132H and against IDH1 R132C was less than 0.3 µM in each case.
Turning to `CCOc1ncc(F)cc1-n1c(C=C(C)C)c(C(=O)N2CCNCC2)cc(-c2nc(-c3ccc(C(F)(F)F)nc3)cs2)c1=O` [Compound 534], the IC50 on IDH1 R132H and on IDH1 R132C was less than 0.3 µM in each case.
In the case of `CCc1cccc(CC)c1-n1c(C)c(C(=O)N2CCNCC2)c(O)c(-c2nc(-c3ccc(Cl)cc3)cs2)c1=O` [Compound 535], the IC50 against IDH1 R132H lay in the range of 0.3 to 1 µM; on IDH1 R132C, 1 to 5 µM.
As for `CCc1cccc(CC)c1-n1c(C=C(C)C)c(C(=O)N2CCNCC2COC)cc(-c2nc(-c3ccc(Cl)cc3)cs2)c1=O` (stereo not shown) [Compound 536], the IC50 at IDH1 R132H and at IDH1 R132C was less than 0.3 µM in each case.
Turning to `CCc1cccc(CC)c1-n1c(C=C(C)C)c(C(=O)N2CCNC(=O)CC2)cc(-c2nc(-c3ccc(Cl)cc3)cs2)c1=O` [Compound 537], the IC50 at IDH1 R132H and against IDH1 R132C was less than 0.3 µM throughout.
On to `CCc1ccc(OC)cc1-n1c(C=C(C)C)c(C(=O)N2CCNCC2)cc(-c2nc(-c3ccc(Cl)cc3)cs2)c1=O` [Compound 539], for which the IC50 against IDH1 R132H and on IDH1 R132C was less than 0.3 µM each time.
Turning to `CCc1cccc(CC)c1-n1c(CC(C)C)c(C(=O)N2CCNCC2)cc(-c2nc(-c3ccc(Cl)cc3C)c(C)s2)c1=O` [Compound 540], the IC50 against IDH1 R132H and on IDH1 R132C was 1 to 5 µM each time.
Regarding `COc1ncc(C)cc1-n1c(C=C(C)C)c(C(=O)N2CCNCC2)cc(-c2ccn(-c3ccc(C(F)(F)F)cc3)n2)c1=O` [Compound 541], the IC50 is less than 0.3 µM at IDH1 R132H and 1 to 5 µM at IDH1 R132C.
With `CCCC1CN(C(=O)c2cc(-c3nc(-c4ccc(Cl)cc4)cs3)c(=O)n(-c3c(CC)cccc3CC)c2C=C(C)C)CCN1` (stereo not shown) [Compound 542], the IC50 against IDH1 R132H and on IDH1 R132C was less than 0.3 µM each time.
As to `CCc1cccc(C)c1-n1c2c(cc(-c3nc(-c4ccccc4)cs3)c1=O)C(=O)CCC2` [Compound 543], the IC50 at IDH1 R132H was 5 to 20 µM; against IDH1 R132C it was 1 to 5 µM.
In the case of `CCOc1ncc(C)cc1-n1c(C=C(C)C)c(C(=O)N2CCNCC2)cc(-c2nc(-c3ccc(Cl)cc3)cs2)c1=O` [Compound 544], the IC50 at IDH1 R132H and against IDH1 R132C was less than 0.3 µM throughout.
On to `CCc1cccc(CC)c1-n1c(C=C(C)C)c(C(=O)N2CCNCC2)cc(-c2nc(-c3ccc(C(F)F)nc3)cs2)c1=O` [Compound 546], for which the IC50 on IDH1 R132H and against IDH1 R132C was less than 0.3 µM each time.
On to `CN1CCN(Cc2ccccc2-n2c3c(cc(-c4nc(-c5ccc(Cl)cc5)cs4)c2=O)C(=O)CC(C)(C)C3)CC1` [Compound 547], for which the IC50 against IDH1 R132H and on IDH1 R132C was 5 to 20 µM in each case.
For `CCc1ccc(Cl)c(CC)c1-n1c2c(cc(-c3nc(-c4ccc(Cl)cc4)cs3)c1=O)C(=O)CC(C)(C)C2` [Compound 548], the IC50 against IDH1 R132H and on IDH1 R132C was less than 0.3 µM throughout.
In the case of `CCc1cccc(CC)c1-n1c(C2CCCCC2)c(C(=O)N2CCNCC2)cc(-c2nc(-c3ccc(Cl)cc3)cs2)c1=O` [Compound 549], the IC50 lay within 1 to 5 µM on IDH1 R132H and 0.3 to 1 µM at IDH1 R132C.
In the case of `CCc1cccc(CC)c1-n1c(C=C(C)C)c(C(=O)N2CCNC(CC)C2)cc(-c2nc(-c3ccc(Cl)cc3)cs2)c1=O` (stereo not shown) [Compound 550], the IC50 at IDH1 R132H and at IDH1 R132C was less than 0.3 µM each time.
Turning to `CCc1cccc(CC)c1-n1c(CC(C)C)c(C(=O)N2CCNCC2)cc(-c2nc(-c3ccc(Cl)c(Cl)c3)c(C)s2)c1=O` [Compound 551], the IC50 against IDH1 R132H is 0.3 to 1 µM; against IDH1 R132C, less than 0.3 µM.
On to `CCOc1ccc(-n2ccc(-c3cc(C(=O)N4CCNCC4)c(C=C(C)C)n(-c4c(CC)cccc4CC)c3=O)n2)cc1` [Compound 552], for which the IC50 against IDH1 R132H and at IDH1 R132C was less than 0.3 µM throughout.
Turning to `CC(C)=Cc1c(C(=O)N2CCNCC2)cc(-c2nc(-c3ccc(Cl)cc3)cs2)c(=O)n1-c1cc(Cl)ccc1OC(C)C` [Compound 553], the IC50 against IDH1 R132H and on IDH1 R132C was less than 0.3 µM each time.
